{
  "source": "patent US10632084B2",
  "about": "“Aquaporin 4 function promotor and pharmaceutical composition for neurological disorders” (NIIGATA UNIVERSITY, priority 2016, dated 2020)",
  "key": {"AQP 4 [1]": {"target": "T1, AQP 4 (Mus musculus, UniProt P55088)", "T1 construct": "from tissue; host or cells: brain of living B6SJL mice", "T1 sequence (P55088 whole entry)": "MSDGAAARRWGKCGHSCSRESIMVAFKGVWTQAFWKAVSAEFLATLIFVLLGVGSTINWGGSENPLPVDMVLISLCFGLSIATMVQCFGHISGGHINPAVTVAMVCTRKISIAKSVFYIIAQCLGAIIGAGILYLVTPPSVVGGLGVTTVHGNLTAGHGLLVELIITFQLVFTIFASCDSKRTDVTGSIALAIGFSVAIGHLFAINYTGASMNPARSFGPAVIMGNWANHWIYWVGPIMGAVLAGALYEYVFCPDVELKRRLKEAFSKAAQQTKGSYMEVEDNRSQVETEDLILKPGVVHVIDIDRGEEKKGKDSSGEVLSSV", "assay": "AQP 4 function promotion verification test using Alzheimer's disease model mice (H2 17O dynamics in brain by MRI)", "assay_type": "in vivo", "conditions": "5×FAD Alzheimer's disease model mice, 50 mg/kg orally for 3 months, MRI (FIG. 3)", "protocol": "(§1) 5×FAD Alzheimer's disease model mice were bred until 4 months old. Next, the compound 1A (50 mg/kg) or the compound 2A (200 mg/kg) prepared in Production Example 1 were orally administered to the mice for 3 months. Further, a non-administration group was also prepared as the control.\nWith respect to the group of mice to which the compound 1A was administered and the non-administration group, images showing the dynamics of H2^17O in the brain of each mouse (cortex and CSF) at 8 second intervals were recorded until 70 seconds after the administration using MRI according to the same method as in Test Example 1. In FIG. 3, “Vehicle” indicates a non-administration group and “Compound 1A” indicates a compound 1A administration group. Further, relative values (CSF/Cortex) with respect to the cortex are also shown."}, "senile plaques (Aβ)": {"test_system": "senile plaques (Aβ)", "assay": "Immunostaining of brain slices and quantification of senile plaques in Alzheimer's disease model mice", "assay_type": "in vivo, mouse", "conditions": "5×FAD mice; for increase in senile plaques formed of Aβ 42: oral administration for 3 months (compound 1A 50 mg/kg, compound 2A 200 mg/kg), cerebral cortex (FIGS. 4A, 4B)", "protocol": "as §1\nSubsequently, the brain was extracted from each mouse, paraffin-embedded slices (respectively with a thickness of 4 μm) were prepared using brain tissues, and immunohistochemical staining was performed according to the following method.\nFirst, the slices were subjected to a formic acid treatment, and overnight incubation was performed at 4° C. using Mouse monoclonal Anti-Human Amyloid J3 (Total Aj3) (10027, IBL, Japan), [2] Rabbit polyclonal Anti-Human Amyloid J31-40 (AJ340) (18580, IBL, Japan), or [3] Rabbit polyclonal Anti-Human Amyloid J31-42 (AJ342) (18582, IBL, Japan) as primary antibodies. Further, the dilution ratios of antibodies were respectively [1]×50, [2]×200, and [3]×200. After the secondary antibodies were applied, the antibodies were visualized according to a polymer method using Histofine DAB substrate kit (NICHIREI CORPORATION, JAPAN).\nNext, the tissue images of the stained samples were imaged using a bright field optical microscope (Olympus Corporation, BX53, DP73), and the images were stored according to the TIFF format (2400×1800 pixels, 3.5×2.6 mm, 2.13 μm^2/pixel). Each image was analyzed in the following manner using a particle analysis function of the image analysis processing software (Aquacosmos, Hamamatsu Photonics K.K., Japan). ROI was set as the cerebral cortex, particles were extracted according to a binarization method, and the area (the number of pixels) of each extracted particle was automatically calculated and output. In output particle data, particles with an area of 10 pixels or less were removed as noise and quantified."}, "AQP 4 [2]": {"target": "T1, AQP 4", "assay": "AQP 4 function promotion verification test using mice (H2 17O dynamics in brain by MRI)", "assay_type": "in vivo", "conditions": "normal male B6SJL-Tg mice, 8 weeks old, intraperitoneal administration, MRI until 70 seconds (FIG. 2B)", "protocol": "Normal male B6SJL-Tg mice obtained from Jackson Laboratory were bred until 8 weeks old. Next, indomethacin as a comparative example, the compound 2A prepared in Production Example 1, and physiological saline as the control were intraperitoneally administered to respectively five mice.\nThereafter, 0.2 mL of typical physiological saline containing 20% H2^17O was administered to the right femoral vein of each mouse through the PE10 tube inserted thereinto using an automatic syringe at 0.04 mL/sec. Next, images showing the dynamics of H2^17O in the brain of each mouse ((cortex) and the cerebrospinal fluid (CSF)) at 8 second intervals were recorded until 70 seconds after the administration using magnetic resonance imaging (MRI). The results are shown in FIG. 2A (administration of indomethacin) and FIG. 2B (administration of compound 2A). FIGS. 2A and 2B show relative values (CSF/Cortex) of CSF with respect to the cortex. In FIGS. 2A and 2B, “Vehicle” indicates a non-administration control group, “Indomethacin” indicates an indomethacin administration group, and “Compound 2A” indicates a compound 2A administration group."}, "[3]": {"target": "T2, human AQP 4 (hAQP 4)-M23 isoform (Homo sapiens, UniProt P55087)", "T2 construct": "expressed in transfected cells; host or cells: Xenopus laevis oocytes, microinjected with hAQP4-M23 mRNA (pSP35T vector)", "T2 sequence (P55087 23-323)": "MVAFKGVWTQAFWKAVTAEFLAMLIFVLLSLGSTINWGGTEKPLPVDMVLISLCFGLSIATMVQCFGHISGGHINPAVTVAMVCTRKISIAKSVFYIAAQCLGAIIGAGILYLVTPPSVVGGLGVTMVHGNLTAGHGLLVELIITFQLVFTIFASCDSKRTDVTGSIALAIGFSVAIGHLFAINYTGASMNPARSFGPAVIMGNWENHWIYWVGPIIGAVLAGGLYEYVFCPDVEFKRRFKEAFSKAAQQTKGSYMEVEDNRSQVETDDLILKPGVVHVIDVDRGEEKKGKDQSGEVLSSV", "assay": "In vitro assay of oocyte volume under hypotonic condition, Xenopus laevis oocytes expressing AQP 4", "assay_type": "cell-based", "conditions": "20 μM compound, oocytes injected with hAQP 4-M23 mRNA, hypotonic reagent, up to 250 seconds, vs Blank (FIG. 1)", "protocol": "A Modified Barth's Medium (MBS) was provided to contain NaCl (88 mM), KCl (1 mM), HEPES (10 mM), MgSO4 (0.82 mM), NaHCO3 (2.4 mM), CaCl2 (0.91 mM), Ca(NO3)2 (0.33 mM), and gentamicin (100 mg/L), prepared to have a pH of 7.5, and used within one week after the preparation.\nIsolation, preparation, and transfection of the oocytes of a Xenopus laevis were performed using a method described in the reference (Sakimura, et al., FEBS Lett., 272, 73 to 80, 1990.). Specifically, the oocytes were extracted from a female adult of a Xenopus laevis (weight of 150 g) and transferred to an MBS. Next, the oocytes were partially transferred to an isolation buffer solution, and the theca folliculi was manually removed so that the oocytes were exposed. […]\nNext, the transferred oocytes were imaged using an SZX 16 microscope (manufactured by Olympus Corporation) connected to a DP 26 digital camera (manufactured by Olympus Corporation). […] A Hypotonic reagent (1000 μL) was added, and an assay initial image (t=3 seconds) and images at 15 second intervals of were recorded up to 250 seconds after the administration. […]\nSubsequently, the images were transferred to a personal computer, and the region of each oocyte was evaluated using NIH Image-J. The value of the cross-sectional area of each oocyte in a plurality of equally determined measurement times was converted into a volume assumed to be spherical. […]"}},
  "data": [
    {"smiles": "N=C(N)NCCS(=O)(=O)O", "note": "[compound 1A, 2-guanidino-1-ethanesulfonic acid]", "values": [
      {"measurement": "AQP 4 function (H2 17O dynamics, CSF/Cortex)", "setting": "AQP 4 [1]", "result": "markedly promoted"},
      {"measurement": "increase in senile plaques (total Aβ, Aβ 40, Aβ 42 staining)", "setting": "senile plaques (Aβ); 50 mg/kg orally for 3 months, cerebral cortex (FIGS. 5A-7B)", "result": "can be suppressed"},
      {"measurement": "increase in senile plaques formed of Aβ 42", "setting": "senile plaques (Aβ)", "result": "can be suppressed"}
    ]},
    {"smiles": "O=S(=O)(Nc1ncccc1OCc1ccccc1)c1ccccc1", "note": "[compound 2A, 2-(phenylsulfonamido)-3-benzyloxypyridine]", "values": [
      {"measurement": "numerical values of CSF/Cortex (H2 17O dynamics; water discharge, flow of cerebrospinal fluid)", "setting": "AQP 4 [2]", "result": "decreased"},
      {"measurement": "volume of the oocyte", "setting": "[3]", "result": "significantly increased"},
      {"measurement": "increase in senile plaques formed of Aβ 42", "setting": "senile plaques (Aβ)", "result": "can be suppressed"}
    ]}
  ]
}
